{"source": "patent US10912787B2", "about": "“Use of N-acetylglucosamine and derivatives thereof to treat muscle disorders” (PUREPHARM INC., priority 2017, dated 2021)", "key": {"[1]": {"tested_on": "C2C12 cells", "assay": "Myogenesis of murine myoblast C2C12 cells (MHC-positive multinucleated myotubes, immunofluorescence)", "assay_type": "cell-based", "details": "for myogenesis (GlcNAc vs glucosamine): C2C12, different doses, FIGS. 4A-4F; for number of multinuclear MHC expressing myotubes: C2C12, differentiation stopped after 72 hours", "description": "(§1) N-Acetylglucosamine promotes myogenesis of murine myoblasts: Myogenesis of murine myoblast cells, C2C12 cells was induced by replacing the medium from growing medium (DMEM supplemented with 10% fetal calf serum) to DMEM supplemented with 1% horse serum, insulin (10 μg/ml), transferrin (5.5 μg/ml) and selenium (5 ng/ml) in the presence or absence of different doses of N-acetylglucosamine (GlcNAc). This condition induces the differentiation of myoblasts, including the induction of the synthesis of myosine heavy chains (MHC). Then myoblasts start fusing with each other to form myotubes, which are multinucleated. Cells were fixed in 3.8% paraformaldehyde containing phosphate buffered saline (PBS) for 15 min. Then cells were permeabilized by PBS-0.25% Triton X100 for 5 min. After washed with PBS, the cells were incubated with anti-MHC antibody (Clone MF-20, 2.5 μg/ml) in the blocking agents (Vectors laboratories) for an hour, followed by anti-mouse antibody labelled with Alex 488. Then nuclei of the cells were stained with DAPI. Fluorescent images were taken through 20× objectives by using Queorum WaveFX spinning Disc confocal system.\nIn the condition shown in FIG. 1, the myogenesis was stopped after the differentiation for 72 hours, which was 18 hours after the presence of myotubes became detectable. […] In FIGS. 2A and 2B, the differentiation was stopped at 62 hours. Fields of view (5×5 FOVs) are stitched together and shown here. One FOV is 0.533 mm square. White color is MHC-positive myotube cells.\nas §1, with “Glucosamine is a commercially available supplement, which has been claimed to reduce arthritic pain, although there is any scientific evidence to support this claim. It was examined whether glucosamine has any significant effect on the myogenesis.” for “N-Acetylglucosamine promotes myogenesis of murine myoblasts:”, “(GlcNAc) or glucosamine.” for “(GlcNAc).”, “fusing” for “fusing with”, “PBS—0.25%” for “PBS-0.25%”"}, "[2]": {"tested_on": "Myoblasts derived from a patient of DM1", "assay": "Myogenesis of myoblasts derived from a patient of myotonic dystrophy 1", "assay_type": "cell-based, human", "details": "after 120 hours of differentiation, FIG. 3", "description": "It is known that myogenesis is impaired in myotonic dystrophy 1 (DM1). The therapeutic potential of GlcNAc on this impaired myogenesis was thus tested. Myoblasts derived from a patient of DM1 were grown in DMEM supplemented with 20% fetal calf serum till the density of cells reached to 90% confluency. Then, the differentiation was induced by changing the medium to DMEM supplemented with 1% fetal calf serum, 10 μg/ml insulin, and 100 μg/ml apotransferrin. After 120 hours, cells were fixed and MHC in the cells were visualized by the method described in Example 1."}, "[3]": {"details": "human, long-term oral administration; cited from earlier work"}, "[4]": {"tested_on": "C2C12 cells", "assay": "Statin-reduced myogenesis of C2C12 cells with or without Simvastatin", "assay_type": "cell-based, murine", "details": "C2C12, 44 hours; for myoblast differentiation / myogenesis in the presence of Simvastatin: FIG. 5", "text": "It is estimated that 10-15% of individuals who take statins-related compounds develop statin-related muscle adverse effects, ranging from mild myalgia to more severed muscle symptoms while the mechanism of statin-induced myopathy remains undetermined. In vitro myogenesis, statins-related compounds reduce in vitro myogenesis and stable adhesion of myotubes. Thus, it was examined whether GlcNAc treatment has any significant effect on the statin-reduced myogenesis. Myogenesis of murine myoblast cells, C2C12 cells was induced by replacing the medium from growing medium to differentiation medium as above DMEM in the presence or absence of different doses of N-acetylglucosamine (GlcNAc) with or without Simvastatin for 44 hours. Cells were then fixed in 3.8% paraformaldehyde containing phosphate buffered saline (PBS) for 15 min. Then cells were permeabilized by PBS-0.25% Triton X100 for 5 min. After washed with PBS, the cells were incubated with anti-MHC antibody (Clone MF-20, 2.5 μg/ml) in the blocking agents (Vectors laboratories) for an hour, followed by anti-mouse antibody labelled with Alex 488. Then nuclei of the cells were stained with DAPI. Fluorescent images were taken through 20× objectives by using Queorum WaveFX spinning Disc confocal system."}, "[5]": {"tested_on": "C2C12 cells", "assay": "Myogenesis of murine myoblast C2C12 cells (MHC-positive multinucleated myotubes, immunofluorescence)", "assay_type": "cell-based", "details": "FIG. 4"}}, "note": "“Also recorded” adds a separate entry of the source.", "data": [{"compound": "CC(=O)N[C@H]1C(O)O[C@H](CO)[C@@H](O)[C@@H]1O", "note": "(stereo partly drawn) [GlcNAc, N-acetylglucosamine]", "values": [{"measurement": "myogenesis (GlcNAc vs glucosamine)", "setting": "[1]", "value": "Promotes the Myogenesis"}, {"measurement": "myogenesis (GlcNAc vs glucosamine)", "setting": "[1]; listed as N-acetylglucosamine", "value": "increases the formation of myotubes"}, {"measurement": "number of multinuclear MHC expressing myotubes", "setting": "[1]; FIG. 1", "value": "increases the number of multinuclear MHC expressing myotubes"}, {"measurement": "number of multinuclear MHC expressing myotubes", "setting": "[1]; FIG. 1, listed as N-acetylglucosamine", "value": "increase of myogenesis of mouse myoblasts"}, {"measurement": "number, length and width of myotubes", "setting": "[1]; C2C12, differentiation stopped at 62 hours, FIGS. 2A and 2B", "value": "increased not only the number of multinuclear MHC expressing myotubes but also the length and width of the myotubes"}, {"measurement": "myogenesis of C2C12 cells", "setting": "[1]; dose of 0.2 mM, 72 hours, FIG. 1", "value": "promotes myogenesis of C2C12 cells"}, {"measurement": "myogenesis of human myoblasts of DM1", "setting": "[2]", "value": "promote the myogenesis of human myoblasts of DM1"}, {"measurement": "myogenesis of human myoblasts of DM1", "setting": "[2]; listed as N-acetylglucosamine", "value": "increase of the myogenesis of human myoblasts"}, {"measurement": "adverse effect", "setting": "[3]", "value": "not to have any significant adverse effect"}, {"measurement": "myoblast differentiation / myogenesis in the presence of Simvastatin", "setting": "[4]", "value": "renders myoblast appropriate differentiation even in the presence of Simvastatin"}, {"measurement": "myoblast differentiation / myogenesis in the presence of Simvastatin", "setting": "[4]; listed as N-acetylglucosamine", "value": "restores the myogenesis that is partially impaired by statin"}, {"measurement": "adhesion of myotubes", "setting": "[4]; with Simvastatin, preliminary data not shown", "value": "stabilizes the adhesion of myotubes"}]}, {"compound": "CCC(C)(C)C(=O)O[C@H]1C[C@@H](C)C=C2C=C[C@H](C)[C@H](CC[C@@H]3C[C@@H](O)CC(=O)O3)[C@H]21", "note": "[Simvastatin, reference compound]", "values": [{"measurement": "formation of myotube in the presence of Simvastatin alone", "setting": "[4]", "value": "the formation of myotube was reduced"}]}, {"compound": "N[C@H]1C(O)O[C@H](CO)[C@@H](O)[C@@H]1O", "note": "(stereo partly drawn) [glucosamine]", "values": [{"measurement": "cell toxicity", "setting": "[5]", "value": "showed toxicity to the myotubes; also recorded: induce cell toxicity"}, {"measurement": "myogenesis (GlcNAc vs glucosamine)", "setting": "[1]", "value": "fails to promote the myogenesis; also recorded: inhibition of myogenesis; also recorded: fails to induce any positive impact on the myogenesis"}]}]}
